Legend:
Type in all cases: in vivo
[1] = test system: female mice fed a high fat diet for 20 weeks; assay: GBR 12909 and FA, alone and combined, 14 days in high fat diet mice (Example 9); conditions: GBR 12909 10 mg/kg, FA 15 mg/kg, FIG. 11
Method: Female mice at 4 weeks of age were fed a high fat diet for 20 weeks to induce diabetes and insulin resistance and continued on such diet while treated for 14 days with either GBR 12909 (10 mg/kg), FA (15 mg/kg), GBR 12909 (10 mg/kg) plus FA (15 mg/kg), or vehicle and sacrified after 14 days of treatment for the analyses of body fat, blood glucose, plasma insulin, and plasma nitric oxide levels. The composite of body fat store level, blood glucose and plasma insulin was reduced the greatest in the GBR/FA group and by a magnitude more than additive of the individual GBR and FA groups combined. Only the GBR/FA group normalized plasma insulin levels. […] This effect was not observed with either GBR or FA treatments alone. Also, there was no desensitization to this dopamine enhancing treatment on this body weight reduction effect as is observed with dopamine D2 receptor agonists (FIG. 15).

[2] = test system: male mice fed a high fat diet; assay: GBR versus bupropion in high fat diet mice (Example 11)
Method: The effect of increasing central dopamine neuronal activity versus increasing central dopamine plus norepinephirne neuronal activity on body fat, blood glucose, plasma insulin, and insulin sensitivity was studied in male mice fed a high fat diet from 4 weeks of age until 24 weeks of age. These mice were maintained on this high fat diet while treated with either GBR (20 mg/kg) (a selective dopamine reuptake inhibitor) or bupropion (20 mg/kg) (a dopamine and norepinpehrine reuptake inhibitor) at doses that approximate their 50% maximal effective dose for these functions in vivo in rodents.

[3] = test system: high fat fed, hypertensive SHR rats; assay: Quinelorane and fusaric acid, alone and combined, in high fat fed hypertensive SHR rats (Example 5); conditions: SHR rats on high fat diet, Q 0.075 mg/kg, FA 12.5 mg/kg
Method: Male SHR rats were maintained on 14 hour daily photoperiods and fed a high fat diet (60% of energy from fat; 5.24 kcal/gram weight) for 3 weeks and then divided into different groups and treated with either quinelorane (Q; a dopamine D2/D3 mixed receptor agonist) (0.075 mg/kg), fusaric acid (FA; a dopamine beta hydroxylase inhibitor) (12.5 mg/kg), quinelorane (0.075 mg/kg) plus FA (Q/FA) (12.5 mg/kg), or vehicle at 13 hours after light onset for 17 days. The doses of Q and FA were set at less than half maximal to effect central dopamine receptor binding functions and dopamine beta hydroxylase activity, respectively. […] Blood pressure measurements were taken at 14 days of treatment and animals were sacrificed at 18 days of treatment for analyses of body fat and humoral factors and metabolites. […] Respecting blood glucose, although both Q and FA reduced glucose level relative to vehicle, only the Q/FA regimen normalized blood glucose in these animals relative to vehicle (FIG. 6).

[4] = test system: obese, diabetic female ob/ob mice; assay: Fusaric acid and SKF 38393, alone and combined, 14 days in ob/ob mice (Example 4); conditions: fusaric acid 15 mg/kg, SKF 38393 10 mg/kg, once daily 14 days, day 15, controls 380+/−30
Method: Fusaric acid is a dopamine beta hydroxylase inhibitor that reduces noradrenaline synthesis in noradrenergic neurons. It is not present in dopaminergic neurons and thus exerts no such effect there. SKF38393 is a post-synaptic dopamine D1 receptor agonist with no marked influence on noradrenergic neurons. A study was conducted to determine the interactive effects of fusaric acid plus SKF 38393 on body fat store levels, and blood glucose and plasma triglyceride levels in ob/ob mice. The ob/ob mouse is hyperphagic, obese, insulin resistant, diabeteic and dyslipidemic due to the absence of functional leptin as a result of a mutation in this gene.
Obese, diabetic female ob/ob mice (body weight of approximately 33 g) maintained on 14 hour daily photoperiods, housed one per cage and allowed to feed ad libitum were randomized to once daily treatment with either fusaric acid (15 mg/kg; n=6-8), SKF 38393 (10 mg/kg; n=6-8), both fusaric acid (15 mg/kg) and SKF 38393 (10 mg/kg) (n=6-8), or vehicle (control group; n=6-8) for a 14 day period. On the fifteenth day of the study and approximately 24 hours after the final treatment animals were sacrificed and blood samples were obtained for the analyses of blood glucose, plasma free fatty acid and triglyceride levels. […]

Structure (SMILES): Cl.Cl.Fc1ccc(C(OCCN2CCN(CCCc3ccccc3)CC2)c2ccc(F)cc2)cc1 [GBR 12909, 1-(2-[bis(4-Fluorophenyl)methoxy]ethyl)-4-(3-phenylpropyl)piperazine dihydrochloride]
- blood glucose level [1]: no significant effect
- reducing plasma insulin ([2]; GBR 20 mg/kg versus bupropion 20 mg/kg, equal dose): much more effective
- body fat ([2]; GBR 20 mg/kg, compared to vehicle and bupropion 20 mg/kg, FIG. 17): significantly reduced

Structure (SMILES): CCCN1CCC[C@@H]2Cc3nc(N)ncc3C[C@H]21 [Q]
- change from baseline body weight (weight loss) ([3]; at 13 hours after light onset for 17 days, FIGS. 1 and 2): regained weight loss to baseline values by treatment end

Structure (SMILES): Cl.Oc1cc2c(cc1O)C(c1ccccc1)CNCC2 (stereo not drawn) [SKF 38393, 1-phenyl-7,8-dihydroxy-2,3,4,5-tetrahydro-1H-3-benzazepine hydrochloride]
- blood glucose [4]: 290 ± 55 mg/dL

Structure (SMILES): CCCCc1ccc(C(=O)O)nc1 [fusaric acid, 5-butyl-2-pyridinecarboxylic acid]
- plasma C-reactive protein levels ([3]; 17 days, relative to vehicle): no significant effect

From patent publication US20130274246A1, “Therapeutic Treatment for Metabolic Syndrome, Type 2 Diabetes, Obesity, or Prediabetes” (priority 2010, published 2013)
